Experimental data from patent US8415386B2, “Azolopyrrolone melanin concentrating hormone receptor-1 antagonists” (Bristol-Myers Squibb Company, priority 2008, dated 2013).
Structures can show the parent of a compound that is named as a salt.

Target: T1, mutated (E4Q, A5T) hMCHR1 receptor (Homo sapiens, UniProt Q99705, A5T/E4Q)
T1 construct: expressed in transfected cells; host or cells: HEK-293 (stably transfected), membranes
Assay: Radioligand Binding Assay for Assessment of MCHR1 Activity
Conditions: membranes from stably transfected HEK-293 cells; competition with [Phe13,[125I]Tyr19]-MCH
Method: Radioligand Binding Assay for Assessment of MCHR1 Activity
Membranes from stably transfected HEK-293 cells expressing a mutated (E4Q, A5T) hMCHR1 receptor were prepared by dounce homogenization and differential centrifugation. Binding experiments were carried out with 0.5-1.0 ug of membrane protein incubated in a total of 0.2 ml in 25 mM HEPES (pH 7.4) with 10 mM MgCl2, 2 mM EGTA, and 0.1% BSA (Binding Buffer) for 90 min. For competition binding assays, reactions were carried out in the presence of with 0.06-0.1 nM [Phe^13, [^125I]Tyr^19]-MCH and increasing concentrations of unlabeled test molecules. Reactions were terminated by rapid vacuum filtration over 96 well-GFC UNIFILTER® plates pre-coated with 0.075 ml binding buffer containing 1% BSA, and washed 3 times with 0.4 ml of Phospho-buffered Saline (pH 7.4) containing 0.01% TX-100. Filters were dried, 0.05 ml microscint 20 was added to each well and radioactivity was subsequently quantified by scintillation counting on a TOPCOUNT® microplate scintillation counter (Packard). Inhibitory constants were determined by nonlinear least squares analysis using a four parameter logistic equation.

T1 sequence (Q99705 whole entry E4Q/A5T): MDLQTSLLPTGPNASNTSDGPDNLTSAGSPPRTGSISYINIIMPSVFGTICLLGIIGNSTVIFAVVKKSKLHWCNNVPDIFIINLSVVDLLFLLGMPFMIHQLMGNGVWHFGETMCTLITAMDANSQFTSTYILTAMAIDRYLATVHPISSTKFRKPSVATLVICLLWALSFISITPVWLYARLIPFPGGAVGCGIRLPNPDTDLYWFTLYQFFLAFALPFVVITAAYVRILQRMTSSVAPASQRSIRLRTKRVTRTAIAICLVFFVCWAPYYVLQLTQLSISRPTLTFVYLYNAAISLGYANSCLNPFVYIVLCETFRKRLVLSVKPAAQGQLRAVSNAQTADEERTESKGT

Row | Ki [nM] | SMILES
1 | 41.4 | COc1cc(N2Cc3nn(-c4ccc(Cl)cc4)cc3C2=O)ccc1OC[C@H](O)C1CC1 [Example 1, (R)-2-(4-Chlorophenyl)-5-(4-(2-cyclopropyl-2-hydroxyethoxy)-3-methoxyphenyl)-5,6-dihydropyrrolo[3,4-c]pyrazol-4(2H)-one]
2 | 334 | COc1cc(N2Cc3nn(-c4ccc(Cl)cc4)cc3C2=O)ccc1OCC(C)O (centres unmarked) [Example 2, 2-(4-Chlorophenyl)-5-(4-(2-hydroxypropoxy)-3-methoxyphenyl)-5,6-dihydropyrrolo[3,4-c]pyrazol-4(2H)-one]
3 | 106 | COc1cc(N2Cc3nn(-c4ccc(Cl)cc4)cc3C2=O)ccc1OCC(C)(C)O [Example 3, 2-(4-Chlorophenyl)-5-(4-(2-hydroxy-2-methylpropoxy)-3-methoxyphenyl)-5,6-dihydropyrrolo[3,4-c]pyrazol-4(2H)-one]
4 | 41.1 | COc1cc(N2Cc3nn(-c4ccc(Cl)cc4)cc3C2=O)ccc1OCC(C)OS(C)(=O)=O (centres unmarked) [Example 4, 1-(4-(2-(4-Chlorophenyl)-4-oxopyrrolo[3,4-c]pyrazol-5(2H,4H,6H)-yl)-2-methoxyphenoxy)propan-2-yl methanesulfonate]
5 | 13.7 | COc1cc(N2Cc3cn(-c4ccc(Cl)cc4)nc3C2=O)ccc1OCC(C)OS(C)(=O)=O (centres unmarked) [Example 5, 1-(4-(2-(4-Chlorophenyl)-6-oxopyrrolo[3,4-c]pyrazol-5(2H,4H,6H)-yl)-2-methoxyphenoxy)propan-2-yl methanesulfonate]
6 | 13.2 | COc1cc(N2Cc3cn(-c4ccc(Cl)cc4)nc3C2=O)ccc1OCC(C)O (centres unmarked) [Example 6, 2-(4-Chlorophenyl)-5-(4-(2-hydroxypropoxy)-3-methoxyphenyl)-4,5-dihydropyrrolo[3,4-c]pyrazol-6(2H)-one]
7 | 49.4 | COc1ccc(N2Cc3cn(-c4ccc(Cl)cc4)nc3C2=O)cc1OC [Example 7, 2-(4-Chlorophenyl)-5-(3,4-dimethoxyphenyl)-4,5-dihydropyrrolo[3,4-c]pyrazol-6(2H)-one]
8 | 12.5 | COc1cc(N2Cc3cn(-c4ccc(Cl)cc4)nc3C2=O)ccc1OCC(C)(C)O [Example 8, 2-(4-Chlorophenyl)-5-(4-(2-hydroxy-2-methylpropoxy)-3-methoxyphenyl)-4,5-dihydropyrrolo[3,4-c]pyrazol-6(2H)-one]
9 | 8.6 | COc1cc(N2Cc3cn(-c4ccc(Cl)cc4)nc3C2=O)ccc1OC[C@H](O)C1CC1 [Example 9, (R)-2-(4-Chlorophenyl)-5-(4-(2-cyclopropyl-2-hydroxyethoxy)-3-methoxyphenyl)-4,5-dihydropyrrolo[3,4-c]pyrazol-6(2H)-one]
10 | 2.7 | COc1cc(N2Cc3cn(-c4ccc(Cl)cc4)nc3C2=O)ccc1OC[C@H](OC(=O)[C@@H](N)C(C)C)C1CC1 [Example 10, (S)-((R)-2-(4-(2-(4-Chlorophenyl)-6-oxopyrrolo[3,4-c]pyrazol-5(2H,4H,6H)-yl)-2-methoxyphenoxy)-1-cyclopropylethyl) 2-amino-3-methylbutanoate, TFA salt]
11 | 81 | O=C1c2nn(-c3ccc(Cl)cc3)cc2CN1c1ccc(N2CC[C@@H](O)C2)nc1 [Example 11, (R)-2-(4-Chlorophenyl)-5-(6-(3-hydroxypyrrolidin-1-yl)pyridin-3-yl)-4,5-dihydropyrrolo[3,4-c]pyrazol-6(2H)-one]
12 | 2.3 | COc1cc(N2Cc3nn(-c4ccc(Cl)cc4)nc3C2=O)ccc1OCCN1CCCC1 [Example 12, 2-(4-Chlorophenyl)-5-(3-methoxy-4-(2-(pyrrolidin-1-yl)ethoxy)phenyl)-5,6-dihydropyrrolo[3,4-d][1,2,3]triazol-4(2H)-one]
13 | 34.3 | COc1cc(N2Cc3nn(-c4ccc(Cl)cc4)nc3C2=O)ccc1OCC(C)(C)O [Example 13, 2-(4-Chlorophenyl)-5-(4-(2-hydroxy-2-methylpropoxy)-3-methoxyphenyl)-5,6-dihydropyrrolo[3,4-d][1,2,3]triazol-4(2H)-one]
14 | 113 | COc1cc(N2Cc3nn(-c4ccc(Cl)cc4)nc3C2=O)ccc1OCC(O)C1CC1 (centres unmarked) [Example 14, 2-(4-Chlorophenyl)-5-(4-(2-cyclopropyl-2-hydroxyethoxy)-3-methoxyphenyl)-5,6-dihydropyrrolo[3,4-d][1,2,3]triazol-4(2H)-one]
15 | 304 | COc1cc(N2Cc3nn(-c4ccc(Cl)cc4)nc3C2=O)ccc1OCC(=O)C1CC1 [Example 14B, 2-(4-Chlorophenyl)-5-(4-(2-cyclopropyl-2-oxoethoxy)-3-methoxyphenyl)-5,6-dihydropyrrolo[3,4-d][1,2,3]triazol-4(2H)-one]
16 | 0.7 | COc1cc(N2Cc3cn(-c4ccc(Cl)cc4)nc3C2=O)ccc1OCCN1CCCC1 [Example 15, 2-(4-Chlorophenyl)-5-(3-methoxy-4-(2-(pyrrolidin-1-yl)ethoxy)phenyl)-4,5-dihydropyrrolo[3,4-c]pyrazol-6(2H)-one, TFA]
17 | 2.5 | CNC1CCN(c2ccc(N3Cc4cn(-c5ccc(Cl)cc5)nc4C3=O)cn2)C1 (centres unmarked) [Example 16, 2-(4-Chlorophenyl)-5-(6-(3-(methylamino)pyrrolidin-1-yl)pyridin-3-yl)-4,5-dihydropyrrolo[3,4-c]pyrazol-6(2H)-one, 2 TFA]
18 | 3.6 | CN(C(=O)OC(C)(C)C)C1CCN(c2ccc(N3Cc4cn(-c5ccc(Cl)cc5)nc4C3=O)cn2)C1 (centres unmarked) [Example 16G, tert-Butyl 1-(5-(2-(4-chlorophenyl)-6-oxopyrrolo[3,4-e]pyrazol-5(2H,4H,6H)-yl)pyridin-2-yl)pyrrolidin-3-yl(methyl)carbamate]
19 | 0.9 | CN(C)[C@H]1CCN(c2ccc(N3Cc4cn(-c5ccc(Cl)cc5)nc4C3=O)cn2)C1 [Example 17, (S)-2-(4-Chlorophenyl)-5-(6-(3-(dimethylamino)pyrrolidin-1-yl)pyridin-3-yl)-4,5-dihydropyrrolo[3,4-c]pyrazol-6(2H)-one, 2 HCl]
20 | 0.7 | CN(C)[C@@H]1CCN(c2ccc(N3Cc4cn(-c5ccc(Cl)cc5)nc4C3=O)cn2)C1 [Example 18, HCl]
21 | 1.3 | CN[C@@H]1CCN(c2ccc(N3Cc4cn(-c5ccc(Cl)cc5)nc4C3=O)cn2)C1 [Example 19, (R)-2-(4-Chlorophenyl)-5-(6-(3-(methylamino)pyrrolidin-1-yl)pyridin-3-yl)-4,5-dihydropyrrolo[3,4-c]pyrazol-6(2H)-one, 2 HCl]
22 | 184 | CN(C(=O)OC(C)(C)C)[C@@H]1CCN(c2ccc(N3Cc4cn(-c5ccc(Cl)cc5)nc4C3=O)cn2)C1 [Example 19A, (R)-tort-Butyl 1-(5-(2-(4-chlorophenyl)-6-oxopyrrolo[3,4-c]pyrazol-5(2H,4H,6H)-yl)pyridin-2-yl)pyrrolidin-3-yl(methyl)carbamate]
23 | 0.9 | CN[C@H]1CCN(c2ccc(N3Cc4cn(-c5ccc(Cl)cc5)nc4C3=O)cn2)C1 [Example 20, (S)-2-(4-Chlorophenyl)-5-(6-(3-(methylamino)pyrrolidin-1-yl)pyridin-3-yl)-4,5-dihydropyrrolo[3,4-c]pyrazol-6(2H)-one, 2 HCl]
24 | 784 | CN(C(=O)OC(C)(C)C)[C@H]1CCN(c2ccc(N3Cc4cn(-c5ccc(Cl)cc5)nc4C3=O)cn2)C1 [Example 20A, (S)-tert-Butyl 1-(5-(2-(4-chlorophenyl)-6-oxopyrrolo[3,4-c]pyrazol-5(2H,4H,6H)-yl)pyridin-2-yl)pyrrolidin-3-yl(methyl)carbamate]
25 | 2.7 | CC(C)(C)NC1CCN(c2ccc(N3Cc4cn(-c5ccc(Cl)cc5)nc4C3=O)cn2)C1 (centres unmarked) [Example 24, 5-(6-(3-(tert-Butylamino)pyrrolidin-1-yl)pyridin-3-yl)-2-(4-chlorophenyl)-4,5-dihydropyrrolo[3,4-c]pyrazol-6(2H)-one]
26 | 0.9 | O=C1c2nn(-c3ccc(Cl)cc3)cc2CN1c1ccc(N2CCC(N3CCCC3)C2)nc1 (centres unmarked) [Example 28, 5-(6-(1,3′-Bipyrrolidin-1′-yl)pyridin-3-yl)-2-(4-chlorophenyl)-4,5-dihydropyrrolo[3,4-c]pyrazol-6(2H)-one]
27 | 17.1 | O=C1c2nn(-c3ccc(Cl)cc3)cc2CN1c1ccc(N2CCC(N3CCCC3)CC2)nc1 [Example 29, 2-(4-Chlorophenyl)-5-(6-(4-(pyrrolidin-1-yl)piperidin-1-yl)pyridin-3-yl)-4,5-dihydropyrrolo[3,4-c]pyrazol-6(2H)-one]
28 | 0.5 | CN[C@H]1CCN(c2ccc(N3Cc4cn(-c5ccc(Cl)cc5)nc4C3=O)cc2OC)C1 [Example 42, (S)-2-(4-Chlorophenyl)-5-(3-methoxy-4-(3-(methylamino)pyrrolidin-1-yl)phenyl)-4,5-dihydropyrrolo[3,4-c]pyrazol-6(2H)-one, 2 TFA]
29 | 32.7 | CN[C@H]1CCN(c2ncc(N3Cc4cn(-c5ccc(Cl)cc5)nc4C3=O)cn2)C1 [Example 47, (S)-2-(4-Chlorophenyl)-5-(2-(3-(methylamino)pyrrolidin-1-yl)pyrimidin-5-yl)-4,5-dihydropyrrolo[3,4-c]pyrazol-6(2H)-one]
